The values below are quoted from earlier work in publication PMC12281475, “Mediator Kinase Inhibitor Selectivity and Activity in Colorectal Cancer” (ACS Chemical Biology, 2025).

The series deals with CDK8. Further details: method as in numbers not given. Particulars: reporter displacement assay; previously characterized compounds, no method in this paper; ref numbers not given; read-out: IC50 for in vitro CDK8 binding; cited from earlier work.

Molecules are shown by their SMILES.

Consider `Cc1n[nH]c2ncc(C(=O)N3CCC[C@@H]3c3ccc(Cl)cc3)cc12` [MSC2530819], for which the concentration for half-maximal inhibition (IC50) (usually the concentration needed to halve the response being measured) is 0.59 µM.
